Measurements published in PMC6271935, “Synthesis and Broad-Spectrum Antiviral Activity of Some Novel Benzo-Heterocyclic Amine Compounds” (Molecules, 2014).

Key:
HepG2.2.15 cells = assay: Cytotoxicity in HepG2.2.15 cells (CPE); assay type: cell-based, human; details: 3 + 3 days
Procedure: Cells were cultured for 3 days at 37 °C in a 5% CO2 atmosphere in an incubator, and the medium was replaced with fresh medium containing the test compounds for an additional 3 days. The cells were subsequently monitored by CPE and the TC50 value was calculated using Reed and Muench analysis.

Cox B3 = assay: organism not typed; assay type: cell-based, Coxsackie viruses (Cox B3 Nancy strain); details: for IC50: Vero
[1] = tested on: Influenza A/hanfang/359/95; assay: microbe, parasite or virus in culture; assay type: cell-based; details: for IC50: Influenza A virus, MDCK
MDCK cells = assay: Cytotoxicity in MDCK cells (CPE); assay type: cell-based, Canine; details: 48 h, Reed & Muench
Procedure: (§1) The cytotoxicity of the compounds in MDCK, Vero and HepG2.2.15 cells was monitored via cytopathic effect (CPE) assays. The MDCK and Vero cells (2.5 × 10^4 /well) were plated in a 96-well plate. Following a 24 h hold period, the monolayer of cells was incubated in the presence of various concentrations of the test compounds. […] The TC50 value was calculated using Reed & Muench analysis.

HBV = assay: Anti-HBV assay in HepG2.2.15 cells, viral DNA by real time PCR; assay type: cell-based, Hepatitis B virus; details: for IC50: Hepatitis B virus, HepG2.2.15, 144 h, intracellular viral DNA, 3 + 3 days
Procedure: The synthesized target compounds were assayed for their broad spectrum antiviral activity towards influenza A, HBV, HCV and Cox B3 virus in vitro. […] The inhibitory activities towards HBV and HCV were tested by real time PCR, and lamivudine (3TC) and teleprevir were used as positive controls, respectively.
The anti-HBV activities of test compounds and a positive control drug were tested in HepG2.2.15 cells. The HepG2.2.15 cells were cultured in 96-well plates and treated with the test compounds at 37 °C for 3 days. The medium was removed, and fresh medium containing the test compounds was added for an additional 3 days. The cells were harvested and intracellular DNA was extracted. The inhibition of viral DNA replication in treated cells versus untreated cells was determined by real time PCR.

Huh7.5 cells = assay: Cytotoxicity in Huh7.5 cells (MTT); assay type: cell-based, human; details: 96 h
Procedure: The Huh7.5 cells (1 × 10^4 cells/well) were plated in 96-well plates. Six hours later the culture media was replaced with fresh medium containing the test compounds at various concentrations. Cytotoxicity was evaluated with the 3-(4,5-dimethylthiazol-2-yl)-2,5-diphenyltetrazolium bromide (MTT) assay after 96 h.
Huh7.5 cells were seeded at a density of 3 × 10^4 cells/cm^2. After 24 h of incubation, the cells were infected with an HCV viral stock (approximately 45 IU per cell) and simultaneously treated with Telaprevir, the test compounds, or the solvent control. The culture medium was removed 96 h after inoculation, and the total intracellular RNA and total intracellular proteins were extracted with a Qiagen Kit according to the manufacturer’s instructions. Intracellular HCV RNA was quantified using a one-step real time RT-PCR kit (Invitrogen). Cytotoxicity was tested by the MTT assay, and IC50 values were calculated by the Reed and Muench methods.

HCV = assay: Anti-HCV assay in Huh7.5 cells, intracellular HCV RNA by real time RT-PCR; assay type: cell-based; details: Hepatitis C virus, 96 h
Vero cells = assay: Cytotoxicity in Vero cells (CPE); details: 48 h, Reed & Muench
Procedure: as §1

## Clc1ccc(CNc2ccc3cc[nH]c3c2)cc1 [1a, (4-Chlorobenzyl)-(1H-indol-6-yl)-amine]
HepG2.2.15 cells
  TC50 (50% cytotoxic concentration), HBV: 8.02 µM
Cox B3
  IC50: 4.79 µM
[1]
  IC50: > 1.6 µM
other
  melting point: 135 to 137 °C
MDCK cells
  TC50 (50% cytotoxic concentration), Influenza A/hanfang/359/95: 3.35 µM
HBV
  IC50: 1.44 µM
Huh7.5 cells
  TC50 (50% cytotoxic concentration), HCV: 15.88 µM
HCV
  IC50: 1.4 µM
Vero cells
  TC50 (50% cytotoxic concentration), Cox B3: 8.34 µM

## C(=C\c1ccccc1)/CNc1ccc2cc[nH]c2c1 [1b, (E)-(1H-Indol-6-yl)-(3-phenylallyl)-amine]
HepG2.2.15 cells
  TC50 (50% cytotoxic concentration), HBV: 3.21 µM
Cox B3
  IC50: 2.86 µM
[1]
  IC50: > 1.65 µM
other
  melting point: 130 to 132 °C
MDCK cells
  TC50 (50% cytotoxic concentration), Influenza A/hanfang/359/95: 2.86 µM
HBV
  IC50: > 1.85 µM
Vero cells
  TC50 (50% cytotoxic concentration), Cox B3: 8.61 µM

## Cc1ccc(CNc2ccc3cc[nH]c3c2)o1 [1c, (1H-Indol-6-yl)-(5-methylfuran-2-ylmethyl)-amine]
HepG2.2.15 cells
  TC50 (50% cytotoxic concentration), HBV: 16.67 µM
Cox B3
  IC50: 1.93 µM
[1]
  IC50: > 0.66 µM
other
  melting point: 100 to 102 °C
MDCK cells
  TC50 (50% cytotoxic concentration), Influenza A/hanfang/359/95: 4.52 µM
HBV
  anti-HBV activity (in words): complete loss of antiviral activity
  IC50: > 5.56 µM
Huh7.5 cells
  TC50 (50% cytotoxic concentration), HCV: 46.78 µM
HCV
  IC50: 2.77 µM
Vero cells
  TC50 (50% cytotoxic concentration), Cox B3: 25.15 µM

## Cc1ccc(CNc2ccc3cc[nH]c3c2)s1 [1d, (1H-Indol-6-yl)-(5-methylthiophen-2-ylmethyl)-amine]
HepG2.2.15 cells
  TC50 (50% cytotoxic concentration), HBV: 28.87 µM
Cox B3
  IC50: 1.69 µM
[1]
  IC50: 11.8 µM
other
  melting point: 89 to 91 °C
MDCK cells
  TC50 (50% cytotoxic concentration), Influenza A/hanfang/359/95: 26.50 µM
HBV
  IC50: > 16.7 µM
Vero cells
  TC50 (50% cytotoxic concentration), Cox B3: 66.10 µM

## COc1cc(CNc2ccc3ncoc3c2)cc(Br)c1O [2a, 4-(Benzooxazol-6-ylaminomethyl)-2-bromo-6-methoxyphenol]
HepG2.2.15 cells
  TC50 (50% cytotoxic concentration), HBV: 28.87 µM
Cox B3
  IC50: 3.52 µM
[1]
  IC50: > 10.6 µM
other
  melting point: 129 to 131 °C
MDCK cells
  TC50 (50% cytotoxic concentration), Influenza A/hanfang/359/95: 64.04 µM
HBV
  IC50: > 16.7 µM
Huh7.5 cells
  TC50 (50% cytotoxic concentration), HCV: 89.63 µM
HCV
  IC50: 33 µM
Vero cells
  TC50 (50% cytotoxic concentration), Cox B3: 55.13 µM

## c1csc(CNc2ccc3ncoc3c2)c1 [2d, Benzooxazol-6-yl-thiophen-2-ylmethylamine]
Cox B3
  IC50: 9.29 µM
[1]
  IC50: 34.4 µM
other
  melting point: 62 to 64 °C
MDCK cells
  TC50 (50% cytotoxic concentration), Influenza A/hanfang/359/95: 434.24 µM
Huh7.5 cells
  TC50 (50% cytotoxic concentration), HCV: 136.53 µM
HCV
  IC50: > 66.7 µM
Vero cells
  TC50 (50% cytotoxic concentration), Cox B3: 100.35 µM

## c1ncc(CNc2ccc3ncoc3c2)cn1 [2f, Benzooxazol-6-yl-pyrimidin-5-ylmethyl-amine]
Cox B3
  IC50: 56.7 µM
[1]
  IC50: > 98.3 µM
other
  melting point: 175 to 177 °C
MDCK cells
  TC50 (50% cytotoxic concentration), Influenza A/hanfang/359/95: 425.44 µM
Vero cells
  TC50 (50% cytotoxic concentration), Cox B3: 295.10 µM

## c1cnc2c(CNc3ccc4ncoc4c3)cccc2c1 [2g, Benzooxazol-6-yl-quinolin-8-ylmethylamine]
Cox B3
  IC50: 8.98 µM
[1]
  IC50: 9.04 µM
other
  melting point: 98 to 100 °C
MDCK cells
  TC50 (50% cytotoxic concentration), Influenza A/hanfang/359/95: 56.04 µM
Huh7.5 cells
  TC50 (50% cytotoxic concentration), HCV: 27.57 µM
HCV
  IC50: 14.2 µM
Vero cells
  TC50 (50% cytotoxic concentration), Cox B3: 80.80 µM

## Nc1ccn([C@@H]2CS[C@H](CO)O2)c(=O)n1 [3TC, lamivudine, reference compound]
HepG2.2.15 cells
  TC50 (50% cytotoxic concentration), HBV: >100 µM
HBV
  IC50: 1.85 µM

## O=[N+]([O-])c1cccc(CNc2ccc3ncsc3c2)c1 [3c, Benzothiazol-6-yl-(3-nitrobenzyl)-amine]
Cox B3
  IC50: 7.23 µM
[1]
  IC50: 12.5 µM
other
  melting point: 126 to 128 °C
MDCK cells
  TC50 (50% cytotoxic concentration), Influenza A/hanfang/359/95: 45.01 µM
Vero cells
  TC50 (50% cytotoxic concentration), Cox B3: 112.45 µM

## O=[N+]([O-])c1ccc(CNc2ccc3ncsc3c2)cc1 [3d, Benzothiazol-6-yl-(4-nitrobenzyl)-amine]
HepG2.2.15 cells
  TC50 (50% cytotoxic concentration), HBV: 9.62 µM
Cox B3
  IC50: 1.82 µM
[1]
  IC50: 3.36 µM
MDCK cells
  TC50 (50% cytotoxic concentration), Influenza A/hanfang/359/95: 272.01 µM
HBV
  IC50: > 5.56 µM
Huh7.5 cells
  TC50 (50% cytotoxic concentration), HCV: 142.86 µM
HCV
  IC50: 22.5 µM
Vero cells
  TC50 (50% cytotoxic concentration), Cox B3: 181.3 µM

## c1csc(CNc2ccc3ncsc3c2)c1 [3h, Benzothiazol-6-yl-thiophen-2-ylmethylamine]
Cox B3
  IC50: 10.4 µM
[1]
  IC50: 6.58 µM
other
  melting point: 148 to 150 °C
MDCK cells
  TC50 (50% cytotoxic concentration), Influenza A/hanfang/359/95: 78.14 µM
Huh7.5 cells
  TC50 (50% cytotoxic concentration), HCV: 153.72 µM
HCV
  IC50: 47.6 µM
Vero cells
  TC50 (50% cytotoxic concentration), Cox B3: 65.03 µM

## c1ccc2c(CNc3ccc4ncsc4c3)c3ccccc3cc2c1 [3k, Anthracen-9-ylmethyl-benzothiazol-6-yl-amine]
Cox B3; Vero cells, CPE
  inhibitory activity towards Cox B3 (in words): no inhibitory activity
[1]
  IC50: > 0.41 µM
[1]; MDCK cells, CPE
  anti-influenza A activity (in words): complete loss in activity
other
  melting point: 174 to 176 °C
MDCK cells
  TC50 (50% cytotoxic concentration), Influenza A/hanfang/359/95: 1.73 µM
Vero cells
  TC50 (50% cytotoxic concentration), Cox B3: 2.09 µM

## C(=C\c1ccccc1)/CNc1ccc2nc[nH]c2c1 [4a, (E)-(3H-Benzoimidazol-5-yl)-(3-phenyl-allyl)-amine]
Cox B3
  IC50: 6.38 µM
[1]
  IC50: 4.93 µM
MDCK cells
  TC50 (50% cytotoxic concentration), Influenza A/hanfang/359/95: 14.84 µM
Huh7.5 cells
  TC50 (50% cytotoxic concentration), HCV: 79.04 µM
HCV
  IC50: 5.51 µM
Vero cells
  TC50 (50% cytotoxic concentration), Cox B3: 25.75 µM

## CCOC(=O)C1=C[C@@H](OC(CC)CC)[C@H](NC(C)=O)[C@@H](N)C1 [Oseltamivir, oseltamivir, reference compound]
[1]
  IC50: 19 µM
MDCK cells
  TC50 (50% cytotoxic concentration), Influenza A/hanfang/359/95: 4030.42 µM

## NC(=O)c1ncn([C@@H]2O[C@H](CO)[C@@H](O)[C@H]2O)n1 [RBV, ribavirin, reference compound]
Cox B3
  IC50: 2120 µM
[1]
  IC50: 8.76 µM

## CCC[C@H](NC(=O)[C@@H]1[C@H]2CCC[C@H]2CN1C(=O)[C@@H](NC(=O)[C@@H](NC(=O)c1cnccn1)C1CCCCC1)C(C)(C)C)C(=O)C(=O)NC1CC1 [Telaprevir, telaprevir, reference compound]
Huh7.5 cells
  TC50 (50% cytotoxic concentration), HCV: 32.12 µM
HCV
  IC50: 0.011 µM
